Columns and labels:
Assay type in all cases: cell-based
[1] = tested on: Colon bacillus: Escherichia coli NBRC 102203T; test: Proliferation-inhibiting (bacteriostatic) effect in Al-added culture medium, protein amount by BCA method; conditions: 2 mM or 20 mM Al solution in culture medium, anaerobic shaking culture 37° C.; FIG. 2 / FIG. 5
[2] = tested on: Butyric acid bacterium: Clostridium butyricum NBRC 13949T; conditions: 2 mM or 20 mM Al solution in culture medium, anaerobic shaking culture 37° C.; FIG. 3 / FIG. 6
[3] = tested on: Sulfate-reducing bacterium: Desulfovibrio vulgaris DSM 644T

| Compound | proliferation of the colon bacillus (increase in protein amount) [1] | proliferation of the butyric acid bacterium (increase in protein amount) [2] | proliferation of the sulfate-reducing bacterium (increase in protein amount) [3] | selective bacteriostatic effect (sulfate-reducing bacterium versus colon bacillus and butyric acid bacterium) [3] |
| --- | --- | --- | --- | --- |
| citric acid/Al chelate [Example 1] | not inhibited | not inhibited | inhibited | selective bacteriostatic effect was recognized |
| EDTA/Al chelate [Example 3] |  |  |  | same selective bacteriostatic effects as in Example 1 were also recognized |
| oxalic acid/Al chelate [Example 2] |  |  |  | same selective bacteriostatic effects as in Example 1 were also recognized |
| [Cl][Al]([Cl])[Cl] [Comparative Example 1, AlCl3, reference compound] | inhibited | inhibited | inhibited |  |
